Measured values taken from ChEMBL document CHEMBL5726333, “C2-carbocyclic iminothiazine dioxides as BACE inhibitors, compositions, and their use” (2017).

Key:
[1] = biological target: T1, Beta-secretase 2 (Homo sapiens, UniProt Q9Y5Z0); test: BACE-2 Assay: The compounds of the invention were determined to be potent inhibitors of BACE-2 using the following assay. Inhibitor IC50s at purified human autoBACE-2 are determined in a time-resolved endpoint proteolysis assay that measures hydrolysis of the QSY7-[…]-Eu-amide FRET peptide substrate (BACE-HTRF assay). BACE-mediated hydrolysis of this peptide results in an increase in relative fluorescence (RFU) at 620 nm after excitation with 320 nm light Inhibitor compounds, prepared at 3× the desired final concentration in 1×BACE assay buffer (20 mM sodium acetate pH 5.0, 10% glycerol, 0.1% Brij-35) supplemented with 7.5% DMSO are pre-incubated with an equal volume of autoBACE-2 enzyme diluted in 1×BACE assay buffer (final enzyme concentration 1 nM) in black 384-well NUNC plates for 30 minutes at 30° C. […] DMSO is present at 5% final concentration in the assay. Following laser excitation of sample wells at 320 nm, the fluorescence signal at 620 nm is collected for 400 ms following a 50 μs delay on a RUBYstar HTRF plate reader (BMG Labtechnologies). Raw RFU data is normalized to maximum (1.0 nM BACE/DMSO) and minimum (no enzyme/DMSO) RFU values.
T1 sequence (Q9Y5Z0 whole entry): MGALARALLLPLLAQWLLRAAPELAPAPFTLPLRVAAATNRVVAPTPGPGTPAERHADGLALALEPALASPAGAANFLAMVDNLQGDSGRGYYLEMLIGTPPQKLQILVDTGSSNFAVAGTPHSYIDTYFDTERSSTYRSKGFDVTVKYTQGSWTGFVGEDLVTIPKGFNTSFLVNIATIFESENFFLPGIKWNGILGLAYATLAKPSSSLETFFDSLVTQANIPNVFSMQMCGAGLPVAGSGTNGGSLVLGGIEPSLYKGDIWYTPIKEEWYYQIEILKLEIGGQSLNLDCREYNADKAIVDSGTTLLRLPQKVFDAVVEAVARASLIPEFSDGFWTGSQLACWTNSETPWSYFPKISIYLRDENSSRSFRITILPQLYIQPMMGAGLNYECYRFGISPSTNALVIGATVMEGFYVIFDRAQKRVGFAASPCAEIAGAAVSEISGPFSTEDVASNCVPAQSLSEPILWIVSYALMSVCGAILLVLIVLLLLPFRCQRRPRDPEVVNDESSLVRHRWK

[2] = biological target: Cathepsin D (Homo sapiens, UniProt P07339); test: Cathepsin-D Assay: The following reagents were used in this assay: Na+-Acetate pH 5.0; 1% Brij-35; Dimethyl Sulfoxide (DMSO); Purified human Cathepsin-D (>95% pure); Aspartyl protease peptide substrate AC-Cys(Eu_Chelate)-Gly-Lys-Pro_ile_leu_phe-Phe-Arg-Leu-Lys(QSY7)-ASP-ASP-NH2.As noted above, certain compounds of the invention exhibit good selectivity of BACE-1 over Cathepsin-D. A homogeneous …
Description: This substrate contains an C-terminal QSY7 moiety that serves as a quencher of the N-terminal Europium fluorophore (620 nm Em). In the absence of enzyme activity, 620 nm fluorescence is low in the assay and increased linearly over 1 hour in the presence of uninhibited Cathepsin-D enzyme. Inhibition of Cathespin D cleavage of the Eu-Aspartyl Protease-QSY7 substrate by inhibitors is manifested as a suppression of 620 nm fluorescence.

[3] = biological target: Beta-secretase 1 (Homo sapiens, UniProt P56817); test: HTRF FRET Assay: The compounds of the invention were determined to be potent inhibitors of BACE-1 using the following assay.The following reagents were used in this assay. Na+-Acetate pH 5.0; 1% Brij-35; Glycerol; Dimethyl Sulfoxide (DMSO); Recombinant human soluble BACE-1 catalytic domain (>95% pure); APP Swedish mutant peptide substrate (QSY7-APPswe-Eu): QSY7-[…]-Europium-amide.A homogeneous time-resolved FRET assay can be used to determine IC50 values for inhibitors of the soluble human BACE-1 catalytic domain. This assay monitors the increase of 620 nm fluorescence that resulted from BACE-1 cleavage of an APPswedish APPswe mutant peptide FRET substrate (QSY7-[…]-Europium-amide). This substrate contains an N-terminal QSY7 moiety that serves as a quencher of the C-terminal Europium fluorophore (620 nm Em). In the absence of enzyme activity, 620 nm fluorescence is low in the assay and increased linearly over 3 hours in the presence of uninhibited BACE-1 enzyme. Inhibition of BACE-1 cleavage of the QSY7-APPswe-Eu substrate by inhibitors is manifested as a suppression of 620 nm fluorescence.
Chain of Beta-secretase 1 (P56817 whole entry, the tested form may be a part): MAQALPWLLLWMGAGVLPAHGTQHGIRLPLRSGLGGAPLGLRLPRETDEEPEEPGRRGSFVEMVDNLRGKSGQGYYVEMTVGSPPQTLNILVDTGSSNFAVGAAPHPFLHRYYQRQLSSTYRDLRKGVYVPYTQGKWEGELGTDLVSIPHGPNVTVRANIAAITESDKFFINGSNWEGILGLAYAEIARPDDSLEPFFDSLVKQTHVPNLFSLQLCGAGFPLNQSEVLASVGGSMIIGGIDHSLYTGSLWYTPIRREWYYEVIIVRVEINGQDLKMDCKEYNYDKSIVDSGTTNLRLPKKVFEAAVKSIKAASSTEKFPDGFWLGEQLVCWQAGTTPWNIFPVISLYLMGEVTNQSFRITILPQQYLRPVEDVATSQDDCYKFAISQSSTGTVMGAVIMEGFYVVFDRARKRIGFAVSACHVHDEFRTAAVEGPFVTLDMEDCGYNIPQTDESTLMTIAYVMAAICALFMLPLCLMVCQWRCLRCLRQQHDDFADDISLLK

Chain of Cathepsin D (P07339 65-162 limits assumed): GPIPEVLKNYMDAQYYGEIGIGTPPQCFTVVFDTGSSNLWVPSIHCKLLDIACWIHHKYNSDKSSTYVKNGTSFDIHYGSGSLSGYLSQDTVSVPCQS
Chain of Cathepsin D (P07339 169-412 limits assumed): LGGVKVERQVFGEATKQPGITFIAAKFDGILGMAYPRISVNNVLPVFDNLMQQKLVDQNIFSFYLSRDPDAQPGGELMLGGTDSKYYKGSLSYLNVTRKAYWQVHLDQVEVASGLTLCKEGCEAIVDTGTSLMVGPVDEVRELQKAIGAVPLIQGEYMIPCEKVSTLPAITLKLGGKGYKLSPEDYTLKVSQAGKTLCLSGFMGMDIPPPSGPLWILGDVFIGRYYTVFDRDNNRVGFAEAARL

SMILES	Ki [1] [nM]	Ki [2] [nM]	Ki [3] [nM]
C[C@@]1(c2cc(Nc3ccnc4cc(F)cnc34)ncc2F)CS(=O)(=O)[C@@](C)(C2CC2)C(N)=N1	1.7	4900	8.5
CC#CCOc1cnc2c(Nc3cnc(F)c([C@]4(C)CS(=O)(=O)[C@@](C)(C5CC5)C(N)=N4)c3)nccc2c1	120	> 9400	2.8
COc1cnc2c(Nc3cc([C@]4(C)CS(=O)(=O)[C@@](C)(C5CC5)C(N)=N4)c(F)cn3)ccnc2n1	2.2	> 9400	5.2
COc1cnc2c(Nc3ccc(F)c([C@]4(C)CS(=O)(=O)[C@@](C)(C5CC5)C(N)=N4)c3)ccnc2n1	53	> 9400	40
C[C@@]1(c2cc(Nc3nccc4cc(F)cnc34)ncc2F)CS(=O)(=O)[C@@](C)(C2CC2)C(N)=N1	1	> 9400	12
C[C@@]1(c2cc(Nc3ccnc4cccnc34)ncc2F)CS(=O)(=O)[C@@](C)(C2CC2)C(N)=N1	3.6	> 9400	59
CC#CCOc1cnc2c(Nc3cnc(F)c([C@]4(C)CS(=O)(=O)[C@@](C)(C5CC5)C(N)=N4)c3)nccc2n1	24	> 9400	1.8
COc1cnc2c(Nc3ccc(F)c([C@]4(C)CS(=O)(=O)[C@@](C)(C5CC5)C(N)=N4)c3)ccnc2c1	20	> 9400	27
C[C@@]1(c2cc(Nc3ncnc4cc(C#N)cnc34)ncc2F)CS(=O)(=O)[C@@](C)(C2CC2)C(N)=N1	19	> 9400	13
C[C@@]1(c2cc(Nc3nccc4cc(C#N)cnc34)ccc2F)CS(=O)(=O)[C@@](CF)(C2CC2)C(N)=N1	0.6	563	1.3
CC#CCOc1cnc2c(Nc3cc([C@]4(C)CS(=O)(=O)[C@@](C)(C5CC5)C(N)=N4)c(F)cn3)nccc2n1	1.2	> 9400	1.5
